Where two headings read alike, the source gives them in different places.
Legend:
[1] = system: streptozotocin-induced rats; conditions: for Mean plasma FFA / Mean plasma insulin / Mean serum glucose: experimental rats, 5 mg per kg s.c. daily for 7 days
Protocol: Animals. Male albino Wistar rats 8-10 weeks of age 200-250 grams of body weight were used. The rats were housed at the temperature of 18±21° C. on a 12 hour light-dark cycle. Rats were fed on a stock laboratory diet (59% carbohydrates; 17% protein; 3% fat; 21% minerals, water, cellulose) and allowed water ad libitum. The streptozotocin (Sigma, St. Louis, Mo., USA) solved in citrate buffer (0.05M, pH 5.5) was injected into tail vein of male albino Wistar rats in a dose of 35 mg per kg of animal body weight to induce decompensated insulin resistance. The rats with levels of glucose more than 14.0 mmol/l were used in the experiment one week after the streptozotocin injection.
(§1) Assays. Plasma free fatty acids levels were determined by enzymatic method with a commercially available kit (Waho Chemicals Gmbh, Neuss, Germany) with Multistat 3 centrifugal analyzer (Instrumentation Laboratories, Lexington, USA).
(§2) Serum glucose concentrations were determined by the glucose oxidase method with a kit (Lachema, Slov.) with glucose analyzer (Beckman, Fullerton, Calif., USA).
(§3) Plasma insulin concentrations were determined by a double-antibody radioimmunoassay kit (Kabi Pharmacia Diagnostics, Uppsala, Sweden) using a rat insulin standard (Novo Research Institute, Bagsvard, Denmark).
Procedure. Streptozotocin-induced rats were assigned to two groups: a control rats (six rats) and experimental rats (fifteen rats). Experimental rats received daily injection (subcutaneously, 0.5 ml at 09.00 h) of water solution of succinic acid disodium salt hexahydrate in a dose of 5 mg per kg of body weight for period of 7 days.
Plasma free fatty acid levels (FFA), plasma Insulin levels and serum glucose levels were measured in rats by tail clipping method at zero day (before treatment), at third, fifth and seventh days (treatment period), and at tenth, fifteen, twentieth, twenty fifth and thirtieth days (after-treatment period).

[2] = system: healthy rats; conditions: no changes during thirty days of the experiment
Protocol: as §1, §2, §3

[3] = system: non-insulin dependent diabetic humans; conditions: for Mean plasma FFA / Mean plasma High Density Lipoprotein cholesterol (HDL) / Mean plasma Low Density Lipoprotein cholesterol (LDL) / Mean plasma Triglycerides / Mean plasma insulin / Mean serum glucose: NIDDM humans, orally 200 mg to 400 mg per day for 3 to 7 days
Description: Patients. Twelve non-insulin dependent diabetic humans were studied. Non-insulin Dependent Diabetes Mellitus (NIDDM) was diagnosed in the humans according to the World Health Organisation criteria and had been presented for minimum 5 years. The NIDDM humans were metabolically stable and had glucose levels more than 12.8 mmol/l. Six patients were taking oral sulphonylurea hypoglicemic drug glibenclamide (rec. INN). None of the humans were undergoing hypolipidemic therapy. The humans had no additive metabolic disorders.
Assays. Assays were used as described in the example 1 of the invention. Plasma insulin concentrations were determined by a double-antibody radioimmunoassay kit (Kabi Pharmacia Diagnostics, Uppsala, Sweden).
Procedure. Pharmaceutical grade succinic acid in a unit dosage form of 100 mg per gelatin capsule was used. All patients received succinic acid orally in daily dose of 200 mg to 400 mg per day for period of 3 to 7 days.
Plasma free fatty acid levels, insulin levels and serum glucose levels, plasma high density lipoprotein cholesterol (HDL-cholesterol), low density lipoprotein cholesterol (LDL-cholesterol) and triglycerides were measured in humans at zero day (before treatment ), at third and fifth days (treatment period), and at tenth, fifteen twentieth, twenty fifth thirtieth and fortieth days (after-treatment period).

[4] = system: pancreatic islets; conditions: MacDonald, Fahien, Diabetes 37(7): 997-999 (1988); cited from earlier work
[5] = day 10 (after-treatment period)
[6] = day 15 (after-treatment period)
[7] = day 20 (after-treatment period)
[8] = day 25 (after-treatment period)
[9] = day 30 (after-treatment period)
[10] = day 10 (after treatment period)
[11] = day 15 (after treatment period)
[12] = day 20 (after treatment period)
[13] = day 25 (after treatment period)
[14] = day 30 (after treatment period)
[15] = day 40 (after treatment period)
[16] = day 40 (after-treatment period)

## O.O.O.O.O.O.O=C([O-])CCC(=O)[O-].[Na+].[Na+] [succinic acid disodium salt hexahydrate]
[1]; day 0 (before treatment)
  Mean plasma FFA: 0.35 ± 0.03 mmol/L
  Mean plasma insulin: 11.0 ± 0.7 ng/mL
  Mean serum glucose: 15.7 ± 2.6 mmol/L
[1]; day 3 (treatment period)
  Mean plasma FFA: 0.32 ± 0.04 mmol/L
  Mean plasma insulin: 10.2 ± 1.1 ng/mL
  Mean serum glucose: 15.8 ± 3.1 mmol/L
[1]; day 5 (treatment period)
  Mean plasma FFA: 0.25 ± 0.06 mmol/L
  Mean plasma insulin: 7.4 ± 0.8 ng/mL
  Mean serum glucose: 13.0 ± 2.4 mmol/L
[1]; day 7 (treatment period)
  Mean plasma FFA: 0.18 ± 0.05 mmol/L
  Mean plasma insulin: 4.2 ± 0.7 ng/mL
  Mean serum glucose: 10.0 ± 1.2 mmol/L
[1]; [5]
  Mean plasma FFA: 0.20 ± 0.06 mmol/L
  Mean plasma insulin: 3.1 ± 0.8 ng/mL
  Mean serum glucose: 10.1 ± 2.0 mmol/L
[1]; [6]
  Mean plasma FFA: 0.15 ± 0.03 mmol/L
  Mean plasma insulin: 2.4 ± 0.4 ng/mL
  Mean serum glucose: 8.1 ± 1.1 mmol/L
[1]; [7]
  Mean plasma FFA: 0.10 ± 0.05 mmol/L
  Mean plasma insulin: 2.1 ± 0.4 ng/mL
  Mean serum glucose: 6.6 ± 0.8 mmol/L
[1]; [8]
  Mean plasma FFA: 0.11 ± 0.04 mmol/L
  Mean plasma insulin: 2.0 ± 0.3 ng/mL
  Mean serum glucose: 5.7 ± 0.5 mmol/L
[1]; [9]
  Mean plasma FFA: 0.13 ± 0.04 mmol/L
  Mean plasma insulin: 2.1 ± 0.3 ng/mL
  Mean serum glucose: 5.4 ± 0.7 mmol/L
[1]; insulin resistant rats in comparison with control insulin resistant rats, maximal efficacy in the after-treatment period
  insulin sensitivity: significant improving in insulin sensitivity
[2]
  plasma free fatty acid levels: 0.08 ± 0.03 mmol/L
  plasma insulin levels: 3.4 ± 0.6 ng/mL
  serum glucose: 4.8 ± 0.4 mmol/L

## O=C(O)CCC(=O)O [succinic acid]
[3]; day 0 (before treatment)
  Mean plasma FFA: 0.240 ± 0.044 mmol/L
  Mean plasma High Density Lipoprotein cholesterol (HDL): 0.6 ± 0.4 mmol/L
  Mean plasma Low Density Lipoprotein cholesterol (LDL): 4.8 ± 0.3 mmol/L
  Mean plasma Triglycerides: 2.7 ± 0.3 mmol/L
  Mean plasma insulin: 140 ± 23 pmol/L
  Mean serum glucose: 14.8 ± 1.4 mmol/L
[3]; day 3 (treatment period)
  Mean plasma FFA: 0.250 ± 0.071 mmol/L
  Mean plasma High Density Lipoprotein cholesterol (HDL): 0.7 ± 0.2 mmol/L
  Mean plasma Low Density Lipoprotein cholesterol (LDL): 4.9 ± 0.4 mmol/L
  Mean plasma Triglycerides: 2.8 ± 0.6 mmol/L
  Mean serum glucose: 14.5 ± 1.4 mmol/L
[3]; day 5 (treatment period)
  Mean plasma FFA: 0.195 ± 0.064 mmol/L
  Mean plasma High Density Lipoprotein cholesterol (HDL): 0.8 ± 0.2 mmol/L
  Mean plasma Low Density Lipoprotein cholesterol (LDL): 4.7 ± 0.2 mmol/L
  Mean plasma Triglycerides: 2.7 ± 0.3 mmol/L
  Mean serum glucose: 14.9 ± 1.5 mmol/L
[3]; [10]
  Mean plasma High Density Lipoprotein cholesterol (HDL): 1.2 ± 0.4 mmol/L
  Mean plasma Low Density Lipoprotein cholesterol (LDL): 4.3 ± 0.6 mmol/L
  Mean plasma Triglycerides: 2.5 ± 0.3 mmol/L
[3]; [5]
  Mean plasma FFA: 0.184 ± 0.035 mmol/L
  Mean plasma insulin: 134 ± 27 pmol/L
  Mean serum glucose: 13.0 ± 2.0 mmol/L
[3]; [11]
  Mean plasma High Density Lipoprotein cholesterol (HDL): 1.2 ± 0.3 mmol/L
  Mean plasma Low Density Lipoprotein cholesterol (LDL): 4.0 ± 0.3 mmol/L
  Mean plasma Triglycerides: 2.4 ± 0.4 mmol/L
[3]; [6]
  Mean plasma FFA: 0.157 ± 0.032 mmol/L
  Mean serum glucose: 13.1 ± 0.8 mmol/L
[3]; [12]
  Mean plasma High Density Lipoprotein cholesterol (HDL): 1.2 ± 0.4 mmol/L
  Mean plasma Low Density Lipoprotein cholesterol (LDL): 3.5 ± 0.4 mmol/L
  Mean plasma Triglycerides: 1.8 ± 0.4 mmol/L
[3]; [7]
  Mean plasma FFA: 0.161 ± 0.034 mmol/L
  Mean plasma insulin: 124 ± 17 pmol/L
  Mean serum glucose: 11.0 ± 1.0 mmol/L
[3]; [13]
  Mean plasma High Density Lipoprotein cholesterol (HDL): 1.3 ± 0.2 mmol/L
  Mean plasma Low Density Lipoprotein cholesterol (LDL): 3.4 ± 0.3 mmol/L
  Mean plasma Triglycerides: 1.3 ± 0.2 mmol/L
[3]; [8]
  Mean plasma FFA: 0.113 ± 0.046 mmol/L
  Mean serum glucose: 9.4 ± 1.3 mmol/L
[3]; [14]
  Mean plasma High Density Lipoprotein cholesterol (HDL): 1.5 ± 0.2 mmol/L
  Mean plasma Low Density Lipoprotein cholesterol (LDL): 3.4 ± 0.2 mmol/L
  Mean plasma Triglycerides: 1.1 ± 0.1 mmol/L
[3]; [9]
  Mean plasma FFA: 0.086 ± 0.035 mmol/L
  Mean plasma insulin: 118 ± 21 pmol/L
  Mean serum glucose: 7.1 ± 0.6 mmol/L
[3]; [15]
  Mean plasma High Density Lipoprotein cholesterol (HDL): 1.3 ± 0.2 mmol/L
  Mean plasma Low Density Lipoprotein cholesterol (LDL): 3.5 ± 0.4 mmol/L
  Mean plasma Triglycerides: 1.4 ± 0.2 mmol/L
[3]; [16]
  Mean plasma FFA: 0.100 ± 0.022 mmol/L
  Mean plasma insulin: 112 ± 14 pmol/L
  Mean serum glucose: 5.8 ± 1.1 mmol/L
[3]; non-insulin dependent diabetic humans, especially in the after-treatment period
  change of plasma triglycerides, LDL cholesterol and HDL cholesterol: reducing plasma triglycerides and low density lipoprotein cholesterol, and increasing plasma high density lipoprotein cholesterol
[3]; non-insulin dependent diabetic humans, maximal efficacy in the after-treatment period
  insulin sensitivity: improving in insulin sensitivity
[4]
  insulin release: did not stimulate insulin release

Source: patent publication US6521665B1, “Method of treating insulin resistance” (priority 2001, dated 2003)
